Results on two compounds are retold here after patent US20080280764A1, “Method of Desiccating and/or Defoliating Glyphosate Resistant Crops” (priority 2005, published 2008).

The test system of this assay is Glyphosate resistant cotton. The assay can be described thus: Field test: defoliation and desiccation of glyphosate resistant cotton. The format is in vivo. Conditions: post-emergence spray, scale 0-100% vs untreated plots. As to the method: In the examples below, the value E which is to be expected if the activity of the individual compounds is just additive was calculated using the method of S. R. Colby (1967) “Calculating synergistic and antagonistic responses of herbicide combinations”, Weeds 15, p. 22 ff.
where X=effect in percent using active compound A at an application rate a; Y=effect in percent using active compound B at an application rate b; E=expected effect (in %) of A+B at application rates a+b.
If the experimentally determined value is higher than the value E calculated according to Colby's equation, a synergistic effect is present.
The phenyluracils I and/or the other active ingredients according to the present invention were formulated in a suitable way, either separately or in mixture, e.g. as emulsifiable concentrates (EC), soluble concentrates (SL), suspo-emulsions (SE), suspension concentrates (SC) or water-dispersible granules (WG). The formulation(s) were suspended or emulsified in water as a distribution medium immediately prior to spraying. Afterwards, the aqueous mixture was evenly sprayed on the test plots by means of finely distributing nozzles.
The test plots of rows of fully mature crop plants at the beginning of leaf fall were of uniform size (typically between 14 and 37 square meters, each) and the distribution of treated and untreated plots was organized according to a randomised bloc design. The plots were treated post-emergence, i.e. the aqueous mixture as described above was sprayed on the crop plants.
The evaluation of the defoliation or desiccation caused by the phenyluracils I and/or the other active ingredients according to the present invention was carried out using a scale from 0 to 100%, compared to the untreated control plots. Here, 0 means no defoliation or desiccation and 100 means complete defoliation of the crop plants, or complete desiccation of the leaves of the crop plant.
Defoliation and Desiccation of Glyphosate Resistant Cotton by the Phenyluracil 1.7 Alone as Well as by a Mixture of the Phenyluracil 1.7 and Glyphosate; Field Test
In this example, glyphosate (isopropylammonium salt) was formulated as a 360 g/l SL and Phenyluracil 1.7 as a 120 g/l EC. Prior to application, the formulated active ingredients were tank-mixed with an aqueous 140 l/ha spray solution which contained, in addition, 10 g/l of Agridex.

The mark [1] stands for this setting: use rate Phenyluracil I.7 12.5 g/ha.

SMILES strings stand for the structures.

With `O=C(O)CNCP(=O)(O)O` [Glyphosate, glyphosate], under “use rate glyphosate 840 g/ha”, the “Glyphosate resistant cotton defoliation at 4 DAT (% defoliation), Found” value is on record as 0% and the “Glyphosate resistant cotton desiccation at 4 DAT (% desiccation), Found” value was found to be 3%.
With `CC(C)N(C)S(=O)(=O)NC(=O)c1cc(-n2c(=O)cc(C(F)(F)F)n(C)c2=O)c(F)cc1Cl` [I.7], under setting [1], the “Glyphosate resistant cotton defoliation at 4 DAT (% defoliation), Found” value came out at 13% and the “Glyphosate resistant cotton desiccation at 4 DAT (% desiccation), Found” value amounted to 63%.
